Structures can show the parent of a compound that is named as a salt.

Tested on in the first series: not given
Test: not given
Details: not given
On to `CC(C)=CCn1c(O[C@@H]2CCCC[C@H]2CN)nc2c1c(=O)n(CC(=O)c1ccccc1)c(=O)n2C` (single isomer, unassigned; diastereomer 1) [Example 38, trans-8-(2-Aminomethylcyclohexyloxy)-3-methyl-7-(3-methylbut-2-enyl)-1-(2-oxo-2-phenylethyl)-3,7-dihydropurine-2,6-dione (diastereomer 1)], for which the melting point is 151.7 °C.

For another series, the target named is T1, DPP-IV from porcine kidney (Sus scrofa, UniProt P22411).
T1 construct: DPP-IV from porcine kidney (Sigma, Munich); purchased Sigma, Munich; host or cells: porcine kidney
T1 sequence (P22411 whole entry): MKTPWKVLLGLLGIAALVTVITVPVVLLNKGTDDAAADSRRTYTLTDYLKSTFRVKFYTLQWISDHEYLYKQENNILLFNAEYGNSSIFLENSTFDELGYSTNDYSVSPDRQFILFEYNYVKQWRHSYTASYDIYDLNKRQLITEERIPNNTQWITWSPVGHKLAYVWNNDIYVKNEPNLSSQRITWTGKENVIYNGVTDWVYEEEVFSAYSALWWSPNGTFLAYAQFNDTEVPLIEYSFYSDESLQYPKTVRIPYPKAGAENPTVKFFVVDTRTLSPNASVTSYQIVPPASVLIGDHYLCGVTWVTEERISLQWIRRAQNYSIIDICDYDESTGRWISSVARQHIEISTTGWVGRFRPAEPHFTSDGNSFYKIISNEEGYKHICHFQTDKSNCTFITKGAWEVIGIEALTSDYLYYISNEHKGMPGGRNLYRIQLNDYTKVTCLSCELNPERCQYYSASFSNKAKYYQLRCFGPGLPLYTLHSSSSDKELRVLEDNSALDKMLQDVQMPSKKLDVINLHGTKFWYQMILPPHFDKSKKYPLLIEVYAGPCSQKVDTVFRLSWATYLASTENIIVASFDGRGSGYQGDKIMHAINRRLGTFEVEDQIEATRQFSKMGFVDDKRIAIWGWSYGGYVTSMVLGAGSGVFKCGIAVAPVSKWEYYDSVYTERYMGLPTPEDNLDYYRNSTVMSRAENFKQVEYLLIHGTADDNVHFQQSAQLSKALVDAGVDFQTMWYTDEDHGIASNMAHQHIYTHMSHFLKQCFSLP
Put plainly: Measurement of the DPP-IV activity (fluorimetric H-Ala-Pro-AFC conversion). The class given is biochemical. To be noted: DPP-IV 1 mU/ml, H-Ala-Pro-AFC 15 μM, Tris/HCl 40 mM pH 7.4, room temperature, typically 10 min. The protocol: The activity of the compounds was assayed as follows: • Measurement of the DPP-IV activity:
The reaction was carried out at room temperature for various times (typically 10 min) and stopped at the end of the reaction by adding 20 μl of ZnCl2 (1 M). […] When inhibitors were added, the added buffer volume was adapted so that a total volume of 200 μl was maintained for the assay mixture.
With `CC(C)=CCn1c(OCC(N)Cc2ccc(Cl)cc2)nc2c1c(=O)n(CC(=O)c1ccccc1)c(=O)n2C` (stereo not shown) [Example 3, 8-[2-Amino-3-(4-chlorophenyl)propoxyl]-3-methyl-7-(3-methylbut-2-enyl)-1-(2-oxo-2-phenylethyl)-3,7-dihydropurine-2,6-dione], the half-maximal inhibitory concentration (IC50) amounted to 460 nM.

Compound `CC(C)=CCn1c(OC[C@H]2CCNC2)nc2c1c(=O)n(CC(=O)c1ccccc1)c(=O)n2C` [Example 9, (S)-3-Methyl-7-(3-methylbut-2-enyl)-1-(2-oxo-2-phenylethyl)-8-(pyrrolidin-3-ylmethoxy)-3,7-dihydropurine-2,6-dione hydrochloride] returned a 50% inhibitory concentration (IC50) of 120 nM.

Regarding `CC(C)=CCn1c(OC[C@H](C)N)nc2c1c(=O)n(CC(=O)c1ccccc1)c(=O)n2C` [Example 4, (S)-8-(2-Aminopropoxy)-3-methyl-7-(3-methylbut-2-enyl)-1-(2-oxo-2-phenylethyl)-3,7-dihydropurine-2,6-dione], half-maximal inhibition (IC50) was put at 28 nM.

As for `CC(C)=CCn1c(OC[C@@H]2CCNC2)nc2c1c(=O)n(CC(=O)c1ccccc1)c(=O)n2C` [Example 10, (R)-3-Methyl-7-(3-methylbut-2-enyl)-1-(2-oxo-2-phenylethyl)-8-(pyrrolidin-3-ylmethoxy)-3,7-dihydropurine-2,6-dione hydrochloride], the half-maximal inhibitory concentration (IC50) amounted to 34 nM.

`CC(C)=CCn1c(OCCN)nc2c1c(=O)n(CC(=O)c1ccccc1)c(=O)n2C` [Example 2, 8-(2-Aminoethoxy)-3-methyl-7-(3-methylbut-2-enyl)-1-(2-oxo-2-phenylethyl)-3,7-dihydropurine-2,6-dione] gave a 50% inhibitory concentration (IC50) of 20 nM.

Consider `CC(C)=CCn1c(OCC2CCCCN2)nc2c1c(=O)n(CC(=O)c1ccccc1)c(=O)n2C` (stereo not shown) [Example 7, 3-Methyl-7-(3-methylbut-2-enyl)-1-(2-oxo-2-phenylethyl)-8-(piperidin-2-ylmethoxy)-3,7-dihydropurine-2,6-dione], for which the IC50 stood at 51 nM.

For `CC(C)=CCn1c(OC[C@@H](C)N)nc2c1c(=O)n(CC(=O)c1ccccc1)c(=O)n2C` [Example 11, (R)-8-(2-Aminopropoxy)-3-methyl-7-(3-methylbut-2-enyl)-1-(2-oxo-2-phenylethyl)-3,7-dihydropurine-2,6-dione], it took 100 nM to reach half-maximal inhibition (IC50).

Turning to `CC(C)=CCn1c(O[C@@H]2CCCC[C@@H]2CN)nc2c1c(=O)n(CC(=O)c1ccccc1)c(=O)n2C` (relative stereo) [Example 28, cis-8-(2-Aminomethylcyclohexyloxy)-3-methyl-7-(3-methylbut-2-enyl)-1-(2-oxo-2-phenylethyl)-3,7-dihydropurine-2,6-dione], the concentration for half-maximal inhibition (IC50) was 13 nM.

Turning to `CC(C)=CCn1c(OC2CCCCC2CN)nc2c1c(=O)n(CC(=O)c1ccccc1)c(=O)n2C` (mixture of isomers) [Example 37, trans-8-(2-Aminomethylcyclohexyloxy)-3-methyl-7-(3-methylbut-2-enyl)-1-(2-oxo-2-phenylethyl)-3,7-dihydropurine-2,6-dione hydrochloride (mixture of diastereomers)], half-maximal inhibition (IC50) was put at 4.5 nM.

Values taken from patent US7879864B2, “Substituted 8-aminoalkoxy-xanthine compounds and compositions useful in the treatment of hyperlipidemia and diabetes” (Sanofi-Aventis Deutschland GmbH, priority 2004, dated 2011).
